Measurements reported in PMC10751773 (JACS Au, 2023).

Tests used:
piscidin 3 (P3) = piscidin 3 (P3) (Morone chrysops x Morone saxatilis, UniProt P0C006); experiment: circular dichroism titration at […] nm, one-site two-state fit; format: binding
piscidin 1 (P1) = piscidin 1 (P1) (Morone saxatilis, UniProt Q8UUG0); experiment: as above; format: binding
piscidin 1 (P1), sequence (Q8UUG0 23-44): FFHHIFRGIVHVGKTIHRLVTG

piscidin 3 (P3), sequence (P0C006 whole entry): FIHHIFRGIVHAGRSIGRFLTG

Kd (piscidin 3 (P3)): 391.5 ± 1.5 µM
Kd (piscidin 1 (P1)): 206 ± 5 µM
Structure (SMILES): CCCCCCOC(=O)CCCCCCC/C=C\CCCCCC[C@H](C)O[C@@H]1O[C@H](CO)[C@@H](O)[C@H](O)[C@H]1O[C@@H]1O[C@H](CO)[C@@H](O)[C@H](O)[C@H]1O [SL-HE]
